The values that follow come from patent US8802433B2, “Macrophage phagocytosis-activating composition and/or composition promoting cytokine production in macrophages” (Aureo Co., Ltd., priority 2009, dated 2014).

Usually IC50 stands for the concentration needed to halve the response being measured.

Data set [1] can be described thus: in vitro. Type of data set: cell-based. To be noted: human. As for the experimental part:
In the following Test Examples, the human monocytic leukemia cell line THP-1 or human leukemia T cell line, Jurkat cell line was incubated at 37° C. under 5% CO2 for culture in the RPMI 1640 medium (containing 10% fetal bovine serum (FBS), 75 mg/L kanamycin, and 3.5 μL/L 2-mercaptoethanol).
In order to study the cytotoxicity of 5-FU on Jurkat cells, 5-FU was studied by MTT method. Jurkat cells prepared as 2.0×10^5 cells/mL were placed in a 96-well plate (Corning). 5-FU was added thereto so as to have final concentrations of 0, 10, 100, and 1000 μM, and the cells were then exposed thereto in a CO2 incubator at 37° C. for 24 hours. At the time point of the exposure over 23 hours, 10 μL of 3-[4,5-dimethylthiazol-2-yl]-2,5-diphenyltet-razolium bromide (MTT solution) (Wako) was added to each well, and the cells were then exposed thereto at 37° C. for 1 hour. After the exposure, the mixture was centrifuged at 1200 rpm for 5 minutes, the supernatant was discarded, 100 μL per well of DMSO was added, and the mixture was measured for absorbance at 570 nm using a microplate reader. […] Therefore, DMSO was added to dissolve the formazan precipitate, and the absorbance of the solution was measured at 570 nm. When the cells are alive, formazan is produced, and thus the solution can be measured at 570 nm.

Data set [2] has as its system Jurkat cells. Description: Exposure of phosphatidylserine in apoptotic Jurkat cells (Annexin V / propidium iodide, flow cytometry). Type of data set: cell-based, human. To be noted: Jurkat cells exposed to 250 μM 5-FU (250 μM or 500 μM tested), 24 hours. As for the experimental part:
Whether the cytotoxicity of 5-FU on Jurkat cells was caused by apoptosis was studied. In early apoptosis, phosphatidylserine (PS) localized on the inside of cell membrane exposes to the outside. PS is a molecule also relating to the recognition and phagocytosis of apoptotic cells by macrophages. The PS exposure is measured, whereby induction of early apoptosis can be confirmed. In late apoptosis, the cell membrane breaks, and the internal components leak out thereof. Therefore, the cells are combined with propidium iodide (PI) which is a membrane impermeable fluorescent dye, whereby the late apoptotic cells and early apoptotic cells can be clearly separated (refer to FIG. 3).
A general note: Flow cytometry measures light scatter and fluorescence of single cells or particles in a stream.

Data set [3] has as its system THP-1 cells differentiated into macrophage-like cells. The data set can be described thus: Ability of macrophage-like cells to phagocytose polystyrene beads. Type of data set: cell-based, human. To be noted: 500-fold vs 1000-fold dilution; 1 μM vs 10 μM.
Description: THP-1 cells (refer to FIG. 1 (A)) were seeded in a 24-well plate (Becton Dickinson Labware, Franklin Lakes, N.J.) at 2×10^5 cells/mL per well, and phorbol 12-myristate 13-acetate (PMA) (Wako) was added to each well so as to have a final concentration of 160 nM, and incubated at 37° C. under 5% CO2 for 72 hours, to give macrophage-like cells (refer to FIG. 1 (B)). After incubation, the cells were washed twice with sterilized PBS in order to remove undifferentiated THP-1 cells, and a fresh medium was added thereto, and the mixture was subjected to an experiment. The THP-1 cells differentiated into macrophage-like cells were prepared in a 24-well plate by the method of Test Example 1. Thereto were each added 500-fold and 1000-fold dilutions as final concentration of an Aureobasidium culture fluid, and the mixture was incubated for 4 hours. […] Thereafter, beads with a diameter of 10 μm were added to each well at a final concentration of 2 μL/mL (Trade name “Polybeads dyed violet” manufactured by Polysciences, Inc.), and the mixture was incubated for 3 hours to allow phagocytosis of the beads by the cells. After the incubation, each well was washed 3 times with sterilized PBS in order to remove beads that were not phagocyted. […] The number of beads phagocyted by the macrophage-like cells was measured with a phase contrast microscope. […]
Data set [4] relates to macrophage-like cells. The data set can be described thus: TNF-α secretion from macrophage-like cells (ELISA). In kind it is cell-based, human. To be noted: added independently or in combination; ELISA of culture fluid. The source says: Since the increase in phagocytosis of macrophage-like cells by the Aureobasidium culture fluid or Compound 1 was inferred to be the result of activity induction in the macrophage-like cells, it was attempted to see if it is true. Specifically, regarding TNF-α, a type of cytokines released by activity induction, how much this substance was secreted into a culture fluid of the macrophage-like cells to which the Aureobasidium culture fluid, Compound 1, or the Aureobasidium culture fluid plus Compound 1 was added was measured by ELISA according to an ordinary method.
Background: ELISA stands for enzyme-linked immunosorbent assay.

Data set [5] deals with THP-1 cells differentiated into macrophage-like cells. The data set can be described thus: Cytokine gene expression in macrophage-like cells (RT-PCR, agarose gel electrophoresis). In kind it is cell-based, human. To be noted: 7 hours, compared to group a (control). As for the experimental part: Regarding TNF-α, IL-6, IL-12B, and IL-18, cytokines released when macrophage-like cells underwent activity induction, how much mRNA for these substances expressed in the macrophage-like cells to which the Aureobasidium culture fluid, Compound 1, or the Aureobasidium culture fluid plus Compound 1 was added was measured by RT-PCR according to an ordinary method. Specifically, first, the THP-1 cells differentiated into macrophage-like cells by the method of Test Example 1 were washed twice with PBS to remove undifferentiated THP-1 cells, and then divided into 9 groups, group a, group b, group c, group d, group e, group f, group g, group h, and group i. Subsequently, the Aureobasidium culture fluid and/or Compound 1 was added to each group so as to have the final concentrations as follows, and the mixture was incubated for 7 hours. Next, each group was washed with PBS, thereafter, 1 mL of Trizol (Invitrogen) was added to each, and the mixture was well suspended and left at room temperature for 5 minutes. […] After left at room temperature for 2 minutes, the mixture was centrifuged at 12000×g at 4° C. for 10 minutes. After centrifugation, 400 μL of the upper layer was collected and transferred to a new Eppendorf tube for 1.5 mL, and 500 μL of 2-propanol (Wako) was added and stirred, and then left at room temperature for 5 minutes. […] Thereafter, the mixture was centrifuged at 12000×g at 4° C. for 10 minutes. After centrifugation, the upper layer was discarded, 75% ethanol was added to the precipitate, and the mixture was centrifuged at 12000×g at 4° C. for 10 minutes. After centrifugation, the upper layer was discarded, and the resultant was suspended in 20 μL of milliQ water, thereby collecting the total mRNA. Subsequently, using the total mRNA of each group as a template, RT-PCR was performed using TaKaRa RNA PCR Kit (AMV) Ver 3.0 (TaKaRa), to prepare a template cDNA of each sample. The RT-PCR reaction solution composition and RT-PCR reaction conditions are as described below. […] RT reaction conditions: after reaction at 42° C. for 30 minutes, respective reactions at 95° C. for 5 minutes and 5° C. for 5 minutes were performed for 1 cycle using a thermal cycler (Bio Flux). Subsequently, PCR was performed using the template cDNA of each group as a template, to amplify each cDNA of TNF-α, IL-6, IL-12B, IL-18, and glyceraldehyde-3-phosphate dehydrogenase (GAPDH). Primers, the PCR reaction solution composition, and PCR reaction conditions are as described below. PCR reaction solution composition: 5×PCR buffer 10 μL, milliQ 28.75 μL, Ex Taq 0.25 μL, sense primer 0.5 μL, antisense primer 0.5 μL, whole amount of template cDNA of each sample. PCR reaction conditions: after reaction at 94° C. for 2 minutes, with respective reactions at 94° C. for 30 seconds, 60° C. for 30 seconds, and 72° C. for 1 minute as 1 cycle, 35 cycles were performed. Thereafter, the amount of PCR reaction product was confirmed by performing agarose gel electrophoresis according to the conventional method, whereby the expression levels of mRNA for TNF-α, IL-6, IL-12B, IL-18, and glyceraldehyde-3-phosphate dehydrogenase (GAPDH) were confirmed.

In turn, `O=c1[nH]cc(F)c(=O)[nH]1` [Compound 5-FU, 5-fluorouracil] registered a half-inhibitory concentration (IC50) at 24 h in data set [1] of 450 µM. Further, the “PS exposure (early apoptosis)” value in data set [2] is “much PS exposure”.
In the case of `CCOCc1nc2c(N)nc3ccccc3c2n1CC(C)(C)O` [Compound 1, 4-Amino-2-(ethoxymethyl)-a,a-dimethyl-1H-imidazo[4,5-c]quinoline-1-ethanol], in data set [3], the “working concentration giving higher phagocytosis of polystyrene beads” value is reported as “higher for 1 μM”. In addition, in data set [4], the “TNF-α secreted as compared to the case of adding nothing” value is recorded as “larger amount”. Moreover, in data set [5] (group b: Compound 1 1 μM), the “expression level of mRNA for IL-12B” value is listed as “increased”, the “expression level of mRNA for IL-18” value was “increased” and the “expression level of mRNA for TNF-α” value was “increased”. In data set [5] (group c: Compound 1 10 μM), the “expression level of mRNA for IL-6” value is recorded as “increased”, the “expression level of mRNA for IL-12B” value is listed as “increased” and the “expression level of mRNA for IL-18” value is on record as “increased”.
